From US20170349638A1, “COMPANION DIAGNOSTIC TOOL FOR PEPTIDOMIMETIC MACROCYCLES” (AILERON Therapeutics, Inc., priority 2016, published 2017) come the findings set out here.

The data set is described as follows: Circular dichroism (CD) analysis of alpha-helicity. In kind it is physicochemical. As to conditions: 222 nm; for Molar Ellipticity 50% TFE (222 in 50% TFE): CD buffer with 50% TFE; for Molar Ellipticity 50% TFE (222 in 50% TFE) / Molar Ellipticity Benign (222 in 0% TFE): 0.05 mg/ml, 4° C.; for Molar Ellipticity Benign (222 in 0% TFE): benign CD buffer (20 mM phosphoric acid, pH 2); for Molar Ellipticity TFE − Molar Ellipticity Benign: difference 50% TFE minus benign buffer.

Where a SMILES comes first, the peptide text is derived from it. Bridges are numbered along the chain shown (N, C = ends). [ ]: non-standard residue; d: D form. R8 = C=CCCCCCC[C@@](C)(N)C(=O)O; S5 = C=CCCC[C@](C)(N)C(=O)O; Nle = CCCC[C@H](N)C(=O)O

Procedure: A Peltier temperature controller was used to maintain temperature control of the optical cell. Results are expressed as mean molar ellipticity [θ] […] Peptide concentrations were determined by amino acid analysis. Stock solutions of peptides were prepared in benign CD buffer (20 mM phosphoric acid, pH 2). The stocks were used to prepare peptide solutions of 0.05 mg/ml in either benign CD buffer or CD buffer with 50% trifluoroethanol (TFE) for analyses in a 10 mm pathlength cell. […] The average of six scans was reported.

Consider `CC(=O)N[C@@H](CC(C)C)C(=O)N[C@H](C(=O)N[C@@H](Cc1ccccc1)C(=O)N[C@]1(C)CCCCCCC=CCCC[C@@](C)(C(=O)N[C@@H](C)C(=O)N[C@@H](C)C(=O)N[C@@H](C)C(=O)N[C@H](C)C(N)=O)NC(=O)[C@H](CC(C)C)NC(=O)[C@H](CCC(N)=O)NC(=O)[C@H](C)NC(=O)[C@H](Cc2c[nH]c3ccccc23)NC(=O)[C@H](Cc2ccc(O)cc2)NC(=O)[C@H](C)NC1=O)[C@@H](C)O` (single isomer, unassigned) [compound 230], for which the “Molar Ellipticity 50% TFE (222 in 50% TFE)” value (from here on “Molar Ellipticity 50% TFE”) is listed as −17974 deg cm^2dmol^−1, the “Molar Ellipticity Benign (222 in 0% TFE)” value was −213.2 deg cm^2dmol^−1 and the “Molar Ellipticity TFE − Molar Ellipticity Benign” value was −17760.8 deg cm^2dmol^−1.
In the same order, the values of `CC(=O)N[C@@H](CC(C)C)C(=O)N[C@H](C(=O)N[C@@H](Cc1ccccc1)C(=O)N[C@]1(C)CCCCCCC=CCCC[C@@](C)(C(=O)N[C@@H](CO)C(=O)N[C@@H](C)C(=O)N[C@@H](Cc2ccccc2)C(N)=O)NC(=O)[C@H](CC(C)C)NC(=O)[C@H](CCC(N)=O)NC(=O)[C@H](C)NC(=O)[C@H](Cc2c[nH]c3ccccc23)NC(=O)[C@H](Cc2ccc(O)cc2)NC(=O)[C@H](C)NC1=O)[C@@H](C)O` [compound 7] (Ac-LTF[R8]AYWAQL[S5]SAF-NH2; staple 4-11) are −19921.4 deg cm^2dmol^−1, 124 deg cm^2dmol^−1 and −20045.4 deg cm^2dmol^−1.
Regarding `CC(=O)N[C@@H](CC(C)C)C(=O)N[C@H](C(=O)N[C@@H](Cc1ccccc1)C(=O)N[C@]1(C)CCCCCCC=CCCC[C@@](C)(C(=O)N[C@@H](CO)C(=O)N[C@@H](C)C(=O)N[C@@H](C)C(N)=O)NC(=O)[C@H](CC(C)C)NC(=O)[C@H](CCC(N)=O)NC(=O)[C@H](C)NC(=O)[C@H](Cc2c[nH]c3ccccc23)NC(=O)[C@H](Cc2ccc(O)cc2)NC(=O)[C@H](C)NC1=O)[C@@H](C)O` [compound 11] (Ac-LTF[R8]AYWAQL[S5]SAA-NH2; staple 4-11), the “Molar Ellipticity 50% TFE” value is given as −16623.4 deg cm^2dmol^−1, the “Molar Ellipticity Benign (222 in 0% TFE)” value is listed as −398.2 deg cm^2dmol^−1 and the “Molar Ellipticity TFE − Molar Ellipticity Benign” value was 16225.2 deg cm^2dmol^−1.
Take `CCCC[C@H](NC(=O)[C@H](CCC(N)=O)NC(=O)[C@H](CCC(N)=O)NC(=O)[C@]1(C)CCCC=CCCCCCC[C@@](C)(NC(=O)[C@H](Cc2ccccc2)NC(C)=O)C(=O)N[C@@H](C)C(=O)N[C@@H](Cc2ccc(O)cc2)C(=O)N[C@@H](Cc2c[nH]c3ccccc23)C(=O)N[C@@H]([C@@H](C)O)C(=O)N[C@@H](C)C(=O)N[C@@H](CC(C)C)C(=O)N1)C(=O)N[C@@H](C(N)=O)C(C)C` [compound 41] (Ac-F[R8]AYWTAL[S5]QQ[Nle][dV]-NH2; staple 2-9): the “Molar Ellipticity 50% TFE” value is −21319.4 deg cm^2dmol^−1, the “Molar Ellipticity Benign (222 in 0% TFE)” value is given as −909 deg cm^2dmol^−1 and the “Molar Ellipticity TFE − Molar Ellipticity Benign” value is reported as 20410.4 deg cm^2dmol^−1.
Regarding `CC(=O)N[C@@H](CC(C)C)C(=O)N[C@H](C(=O)N[C@@H](Cc1ccccc1)C(=O)N[C@]1(C)CCCCCCC=CCCC[C@@](C)(C(=O)N[C@@H](Cc2c[nH]cn2)C(=O)N[C@@H](Cc2c[nH]cn2)C(=O)N[C@@H](CC(C)C)C(=O)N[C@H](C)C(N)=O)NC(=O)[C@H](CC(C)C)NC(=O)[C@H](CCC(N)=O)NC(=O)[C@H](C)NC(=O)[C@H](Cc2c[nH]c3ccccc23)NC(=O)[C@H](Cc2ccc(O)cc2)NC(=O)[C@H](C)NC1=O)[C@@H](C)O` [compound 43] (Ac-LTF[R8]AYWAQL[S5]HHL[dA]-NH2; staple 4-11), the “Molar Ellipticity 50% TFE” value is given as −18247.4 deg cm^2dmol^−1, the “Molar Ellipticity Benign (222 in 0% TFE)” value is listed as −15334.5 deg cm^2dmol^−1 and the “Molar Ellipticity TFE − Molar Ellipticity Benign” value is 2912.9 deg cm^2dmol^−1.
Take `CCCC[C@H](NC(=O)[C@H](C)NC(=O)[C@H](C)NC(=O)[C@]1(C)CCC/C=C/CCCCCC[C@@](C)(NC(=O)[C@H](Cc2ccccc2)NC(=O)[C@@H](NC(=O)[C@H](CC(C)C)NC(C)=O)[C@@H](C)O)C(=O)N[C@@H](C)C(=O)N[C@@H](Cc2ccc(O)cc2)C(=O)N[C@@H](Cc2c[nH]c3ccccc23)C(=O)N[C@@H](C)C(=O)N[C@@H](CCC(N)=O)C(=O)N[C@@H](CC(C)C)C(=O)N1)C(=O)N[C@@H](C)C(N)=O` [compound 69]: the “Molar Ellipticity 50% TFE” value is −21509.7 deg cm^2dmol^−1 and the “Molar Ellipticity Benign (222 in 0% TFE)” value is −102.6 deg cm^2dmol^−1.
Consider `CC[C@H](C)[C@H](NC(=O)[C@H](C)NC(=O)[C@H](C)NC(=O)[C@]1(C)CCC/C=C/CCCCCC[C@@](C)(NC(=O)[C@H](Cc2ccccc2)NC(=O)[C@@H](NC(=O)[C@H](CC(C)C)NC(C)=O)[C@@H](C)O)C(=O)N[C@@H](C)C(=O)N[C@@H](Cc2ccc(O)cc2)C(=O)N[C@@H](Cc2c[nH]c3ccccc23)C(=O)N[C@@H](C)C(=O)N[C@@H](CCC(N)=O)C(=O)N[C@@H](CC(C)C)C(=O)N1)C(=O)N[C@H](C)C(N)=O` [compound 71], for which the “Molar Ellipticity 50% TFE” value is given as −17957 deg cm^2dmol^−1, the “Molar Ellipticity Benign (222 in 0% TFE)” value is on record as −121.2 deg cm^2dmol^−1 and the “Molar Ellipticity TFE − Molar Ellipticity Benign” value was −17835.9 deg cm^2dmol^−1.
In the same order, the values of `CC(=O)N[C@@H](CC(C)C)C(=O)N[C@H](C(=O)N[C@@H](Cc1ccccc1)C(=O)N[C@]1(C)CCCCCCC=CCCC[C@@](C)(C(=O)N[C@@H](C)C(=O)N[C@@H](C)C(=O)N[C@@H](C)C(=O)N[C@@H](C)C(=O)N[C@H](C)C(N)=O)NC(=O)[C@H](CC(C)C)NC(=O)[C@H](CCC(N)=O)NC(=O)[C@H](C)NC(=O)[C@H](Cc2c[nH]c3ccccc23)NC(=O)[C@H](Cc2ccc(O)cc2)NC(=O)[C@H](C)NC1=O)[C@@H](C)O` [compound 233] are −19032.6 deg cm^2dmol^−1, −477.9 deg cm^2dmol^−1 and −18554.7 deg cm^2dmol^−1.
